Laboratory results published in patent publication US20150025052A1, “Compositions and Methods for Inhibiting HSP90/HSP70 Machinery” (Georgia Regents Research Institute, Inc., priority 2013, published 2015).

Assays:
[1] = test system: LNCaP cells; format: cell-based
[2] = test system: MCF7 cells
[3] = test system: NCI 60-cell panel; details: read-out: Growth Inhibition of 50% (GI50); cited from earlier work
[4] = test system: Hsp90 derived from transformed cells overexpressing HER-2 (BT474, N87, SKOV3 and SKBR3); details: cited from earlier work
[5] = preclinical data; cited from earlier work
[6] = test system: Hsp90/Hsp70 chaperoning machinery (rabbit reticulocyte lysate) with progesterone receptor; experiment: Progesterone receptor (PR) reconstitution assay: recovery of hormone binding activity of PR; format: biochemical
Description: To identify small molecule inhibitors of molecular chaperones, a high-throughput functional screen was developed based on the isoform A of progesterone receptor (PRA), a well-established physiological client of Hsp90, and using rabbit reticulocyte lysate (RRL) as a source of molecular chaperones. This comprehensive functional assay measured the recovery of hormone binding activity of PRA after mild heat treatment. Purified PR was adsorbed onto PR22 antibody bound to protein A that was absorbed on 96 well plates. 100 μl of RRL lysate and ATP regeneration system was added to each well. After incubation for 30 min at 30° C., 0.1 μM [3H]-progesterone (American Radiolabeled Chemicals, Inc #ART 0063) was added. Plates were incubated on ice for 2 h at 4° C. Complexes were then washed three times with 200 μl of reaction buffer (20 mM Tris/HCl, pH 7.5, 5 mM MgCl2, 2 mM DTT, 0.01% NP-40, 50 mM KCl and 5 mM ATP) and assessed for bound progesterone by liquid scintillation using PerkinElmer Microbeta plate reader.
PR complexes were reconstituted on a 96-well plate; the first eight samples contain the following internal controls: 1. Protein A alone, 2. Protein A+PR22, 3. Protein A+PR22+PR, 4. Protein A+PR22+PR+RRL, 5. Protein A+PR22+PR+RRL+17-AAG (20 μM), 6. Protein A+PR22+PR+RRL+Myrecetin (20 μM), 7. Protein A+PR22+PR+RRL+geldanamycin (20 μM), 8. Protein A+PR22+PR+RRL+gedunin (20 μM). […]

[7] = test system: Hsp90 client proteins (Her2, CDK4, ChK1, Raf-A, Akt, ILK, GR, PR, AR); experiment: Western blotting of Hsp90 client proteins in cancer cells; format: cell-based; details: 50, 100, 200 μM capsaicin; HeLa, MCF7, LNCaP cells
Description: (§1) FIGS. 2A-2F are autoradiographs of composite images of Western immuno-staining blots. […] FIGS. 2D-E show the Hsp90 client proteins HER2, GR, PRB, CDK4, Chk1, Raf-A, Akt and ILK, and the chaperones Hsp70, 2;3, Hsc70, HOP, HDJ2 (Hsp40), p23, Hsp90α and Hsp90β in the presence of DMSO, 2.5 μM 17AAG or 50, 100 or 200 μM capsaicin in HeLa cells (FIG. 2D) or MCF7 cells (FIG. 2E), respectively. In all blots, 2.5 μM 17-AAG was used as a positive control for cellular degradation of several kinases and hormone receptor clients of Hsp90, Beta actin (β-actin) was used a loading control. FIG. 2F is an autoradiograph of a Western blot showing capsaicin altered Hsp70 multi-chaperone complexes in cells. LNCaP cells were treated with 200 μM capsaicin for 6 h and then lysed, and Hsp70 complexes were pulled down using an antibody against Hsp70 on Protein A-Sepharose beads. Western blotting was performed for Hsp70, Hsp40 (HDJ-2), and Hsp90β. Capsaicin reduced Hsp40 and Hsp90 binding to Hsp70. Mouse IgG was used as a control.
(§2) Cells were lysed with buffer A (10 mM Tris pH 8.0, 137 mM NaCl, 10% glycerol, 1% Nonident P-40) supplemented with protease inhibitor cocktail (Roche Applied Science catalog no. 11 836 170 001) on ice for 30 minutes, shaking every 5 minutes. Lysate was centrifuged at 16,000×g for 10 minutes. 10 μg of clarified lysates were run on SDS-PAGE (10% gel) and transferred to PVDF membrane. […]

[8] = test system: Hsp90α, Hsp90β, Hsp40, p23 and Hop; experiment: Western blotting of molecular chaperones in cancer cells; format: cell-based; details: 50, 100, 200 μM capsaicin
Description: as §1, §2

[9] = test system: Hsp70 (inducible form, Hsp70i); experiment: Western blotting of Hsp70 in cancer cells; format: cell-based
[10] = test system: Hsc70 (constitutive form); experiment: Western blotting of Hsc70 in cancer cells; format: cell-based; details: HeLa and MCF7 cells
Description: as §1, §2

[11] = test system: cancer cells (LNCaP, MCF7, HepG2, HeLa); experiment: Colony formation assay; format: cell-based; details: 200 μM capsaicin for 24 h, 15 days growth
Description: FIG. 3A is a line graph of absorbance at 495 nm (arbitrary units) versus Capsaicin dose (μM) of Hs578Bst and MCF7 cells treated with the indicated dose of capsaicin. FIG. 3B is a line graph of absorbance at 495 nm versus time of capsaicin treatment (hours) of Hs578Bst cells and MCF7 cells. Stippled line represents Hs578Bst cells and solid line represents MCF7 cells. FIGS. 3C-F are histograms showing colony number versus treatment with DMSO or Capsaicin in the following cell lines: LNCaP (FIG. 3C), MCF7 (FIG. 3D), HepG2 (FIG. 3E), and HeLa (FIG. 3F). Cells were treated with 200 μM capsaicin for 24 h. Adherent cells were then collected and plated (1000 cells per 10 cm dish) for further incubation. The standard deviation of three dishes is shown as error bars. The experiment was reproduced twice. FIG. 3G is an autoradiograph of cell lysates HeLa, MCF7 and LNCaP treated with 200 μM capsaicin for 24 h; cell lysates were made and Western blotted for p62/SQSTM1 and LC3II. β-actin was used as a loading control. LNCaP cells were treated with 50, 100 and 200 μM capsaicin for 24 h. this experiment was reproduced twice. […] DMSO was used as a control.
Cells were grown in 6-well tissue culture plates to 60% confluence and treated with 200 μM capsaicin or DMSO control for 24 h. […] Cells were fixed with 6% Glutaraldehyde and 0.5% Crystal Violet, and colonies that contained 50 cells were counted. […]

[12] = test system: LC3II and p62/SQSTM1; experiment: Western blotting of autophagy markers; format: cell-based
[13] = test system: Hsp70 mRNA; experiment: Gene expression assay (RT-PCR) of Hsp70 mRNA in MCF7 cells; format: cell-based
[14] = target: Hsp70 (Homo sapiens, UniProt P0DMV8); experiment: Fluorescence emission assay with purified Hsp70; format: binding; details: Hsp70 15 μM, capsaicin 7.5 μM, 1 h room temperature, excitation 266 nm
Description: (§3) FIG. 5A is a histogram showing the ratio of Hsp70 mRNA relative to β-actin in the presence of DMSO, 100 μM or 200 μM capsaicin (Cap) after RT-PCR. FIG. 5B is a graph of fluorescence emission spectra for capsaicin, Hsp70, Hsp70 with capsaicin (Hsp70+C), Hsp90, Hsp90 with capsaicin (Hsp90+C), Hsp40 and Hsp40 with capsaicin (Hsp40+C), at wavelengths between 290 and 440 nm. All chaperones were tested at 15 μM and capsaicin at 7.5 μM. Proteins were incubated for 1 h at room temp in the presence or absence of capsaicin. An excitation wavelength of 266 nm was used.
(§4) To determine the effect of molecular chaperones on the fluorescence emission of capsaicin, all chaperones were tested at 15 μM and capsaicin at 7.5 μM concentrations. Proteins were incubated for 1 h at room temperature in the presence or absence of capsaicin. A 96-well black plate and a SAFIRE-TECAN plate reader were used. The excitation wavelength was 266 nm.

[15] = test system: Hsp90; experiment: Fluorescence emission assay with Hsp90; format: binding; details: Hsp90 15 μM, capsaicin 7.5 μM, excitation 266 nm
Description: as §3, §4

[16] = test system: Hsp40; experiment: Fluorescence emission assay with Hsp40; format: binding; details: Hsp40 15 μM, capsaicin 7.5 μM, excitation 266 nm
Description: as §3, §4

[17] = target: T1, Hsp70 multi-chaperone complexes (Homo sapiens, UniProt P0DMV8); experiment: Hsp70 complex pull-down and Western blotting in LNCaP cells; format: cell-based; details: 200 μM capsaicin, 6 h
T1 construct: endogenous in cells; host or cells: LNCaP
Description: as §1
FIG. 12 is an autoradiograph of LNCaP cells treated with 200 μM capsaicin for 6 h and then lysed and Western blotted for Hsp70, Hsp40 (HDJ-2), and Hsp90β. Capsaicin reduced Hsp40 and Hsp90 binding to Hsp70. Mouse IgG was used as a control.

[18] = test system: MCF7 cells; experiment: Microscopy (light, transmission electron) of capsaicin-treated MCF7 cells; format: cell-based
[19] = in vivo; cited from earlier work
[20] = purified capsaicin; cited from earlier work
[21] = 5 mg/kg by gavage, three days per week for 2-4 weeks; cited from earlier work
[22] = test system: HCT 116 colon cancer cells; details: cited from earlier work

Hsp70, sequence (P0DMV8 2-641 limits assumed): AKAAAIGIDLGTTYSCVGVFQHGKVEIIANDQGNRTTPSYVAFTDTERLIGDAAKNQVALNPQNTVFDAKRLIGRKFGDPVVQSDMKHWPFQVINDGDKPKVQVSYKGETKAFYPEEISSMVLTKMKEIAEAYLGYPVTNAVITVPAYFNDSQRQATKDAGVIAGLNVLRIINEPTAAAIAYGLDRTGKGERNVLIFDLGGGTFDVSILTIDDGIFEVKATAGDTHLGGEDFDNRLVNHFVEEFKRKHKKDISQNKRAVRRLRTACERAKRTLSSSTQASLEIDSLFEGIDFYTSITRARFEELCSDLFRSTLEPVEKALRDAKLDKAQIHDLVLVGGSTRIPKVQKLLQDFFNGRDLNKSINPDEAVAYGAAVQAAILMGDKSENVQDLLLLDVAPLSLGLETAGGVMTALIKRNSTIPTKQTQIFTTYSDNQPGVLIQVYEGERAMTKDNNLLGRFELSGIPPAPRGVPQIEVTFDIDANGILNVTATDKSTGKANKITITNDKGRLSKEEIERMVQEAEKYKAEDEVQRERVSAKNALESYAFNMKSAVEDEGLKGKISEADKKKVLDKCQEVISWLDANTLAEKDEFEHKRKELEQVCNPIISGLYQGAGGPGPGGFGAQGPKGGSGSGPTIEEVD
T1 sequence (P0DMV8 2-641 limits assumed, one chain of several): as the sequence (P0DMV8 2-641 limits assumed) above

Structure (SMILES): C=CCNC1=C2C[C@@H](C)C[C@H](OC)[C@H](O)[C@@H](C)/C=C(\C)[C@H](OC(N)=O)[C@@H](OC)/C=C\C=C(/C)C(=O)NC(=CC1=O)C2=O [17-AAG, 17-allylamino-17-demethoxygeldanamycin]
- cell killing (relative survival) [1]: very little effect or no effect
- cytotoxicity (cell survival) [2]: minimal cytotoxicity
- GI50 [3]: 0.12 µM
- IC50 ([4]; Hsp90 from HER-2 overexpressing cells or BT474 breast carcinoma cells): 0.005 to 0.006 µM
- higher affinity for Hsp90 derived from transformed cells ([4]; relative to non-tumor cells): more than 100 ×

Structure (SMILES): CO[C@H]1/C=C\C=C(/C)C(=O)NC2=CC(=O)C(NCCN(C)C)=C(C[C@@H](C)C[C@H](OC)[C@H](O)[C@@H](C)/C=C(\C)[C@@H]1OC(N)=O)C2=O [17-DMAG, 17-Dimethylaminoethylamino-17-demethoxygeldanamycin]
- GI50 [3]: 0.051 µM

Structure (SMILES): CC(C)c1cc(-c2n[nH]c(=O)n2-c2ccc3c(ccn3C)c2)c(O)cc1O [Ganetespib]
- cardiac or liver toxicity [5]: no evidence of cardiac or liver toxicity

Structure (SMILES): COc1cc(CNC(=O)CCCC/C=C/C(C)C)ccc1O [capsaicin, 8-Methyl-N-vanillyl-trans-6-nonenamide]
- blocking the hormone-binding activity of PR ([6]; rescreened in triplicates at 20 μM final concentration): about 40%
- modulation of the Hsp90 chaperoning activity ([6]; screen of NIH Clinical Collection library (FIG. 1)): efficient and reproducible modulation
- cellular degradation of Hsp90 client proteins [7]: caused cellular degradation
- expression level of molecular chaperones Hsp90α, Hsp90β, Hsp40, p23 and Hop [8]: did not affect
- level of Hsp70 ([9]; HeLa and MCF7 cells): reduced the level of Hsp70
- degradation of Hsp70 ([9]; HeLa, LNCaP, MCF7, Hs578T and MDA-MB-231, 24 h): reproducibly caused degradation
- level of Hsp70 after 6 h of treatment ([9]; LNCaP cells, 200 μM capsaicin, 6 h (FIG. 12)): not significantly down
- stabilization of Hsp70 protein by autophagy inhibitor 3MA ([9]; capsaicin 200 μM (alone or with 17-AAG) plus 3MA 5 mM, 6 h): almost fully stabilizes
- rescue of Hsp70 protein by proteasome inhibitor MG132 ([9]; capsaicin 200 μM plus MG132 20 μM, 6 h): does not rescue
- Hsp70 protein level ([9]; capsaicin 200 μM, 17-AAG 200 nM (FIG. 7C)): decreased
- level of Hsc70 [10]: did not change
- cell killing (relative survival) [1]: very little effect or no effect
- ability of cancer cells to form colonies [11]: efficiently reduces
- LC3II modification ([12]; HeLa cells, 200 μM capsaicin 24 h): no LC3II modification
- LC3B modification ([12]; LNCaP cells, 50, 100, 200 μM capsaicin 24 h): concentration-dependent induction
- LC3II levels ([12]; MCF7 and LNCaP cells, 200 μM capsaicin 24 h): significantly increased
- p62/SQSTM1 protein level ([12]; capsaicin treatment, Western blot): accumulation
- level of Hsp70 mRNA ([13]; 100 or 200 μM capsaicin, 24 h (FIG. 5A)): No change
- level of Hsp70 mRNA ([13]; capsaicin 200 μM, 17-AAG 200 nM (FIG. 7A)): slightly increased
- capsaicin fluorescence emission in presence of Hsp70 [14]: completely quenched
- capsaicin fluorescence emission in presence of Hsp90 [15]: may not significantly change
- capsaicin fluorescence emission in presence of Hsp40 [16]: may not significantly change
- Hsp40 and Hsp90 binding to Hsp70 [17]: reduced
- mitophagy [18]: induced mitophagy
- cell death of MCF7 cancer cells [2]: caused cell death
- cytotoxicity (cell survival) [2]: minimal cytotoxicity
- pharmacokinetic half-life [19]: approximately 24 hours
- solubility in alcohol, fats and oils [20]: freely soluble
- solubility in cold water [20]: insoluble
- toxicity symptoms [21]: No toxicity symptoms were observed

Structure (SMILES): COc1cc(CNC(=O)CCCCCCC(C)C)ccc1O [dihydrocapsaicin]
- mitoautophagy [22]: induces mitoautophagy
